Measurements: the NIST ThermoML archive (doi:10.1021/je060271a)
Values joined by “and” are separate entries in the source; they are usually repeats but may differ in a detail not shown here. Equal values may be shown once. Numbers after ± are expanded uncertainties.

Conditions: 343.16 K, Liquid, Vibrating tube method

CCCCCC(=O)OCC(COC(=O)CCCCC)(COC(=O)CCCCC)COC(=O)CCCCC [pentaerythritol tetrahexanoate]
Conditions	mass density
354.4 kPa	957.4 ± 1.2 kg/m3 and 957.3 ± 1.2 kg/m3
355.3 kPa	957.3 ± 1.2 kg/m3
355.8 kPa	957.3 ± 1.2 kg/m3
356.3 kPa	957.3 ± 1.2 kg/m3
356.7 kPa	957.4 ± 1.2 kg/m3
357 kPa	957.4 ± 1.2 kg/m3
357.2 kPa	957.4 ± 1.2 kg/m3
357.5 kPa	957.4 ± 1.2 kg/m3
357.9 kPa	957.4 ± 1.2 kg/m3
358.6 kPa	957.4 ± 1.2 kg/m3
359.5 kPa	957.4 ± 1.2 kg/m3
360.3 kPa	957.4 ± 1.2 kg/m3
360.5 kPa	957.3 ± 1.2 kg/m3
360.7 kPa	957.3 ± 1.2 kg/m3
361.4 kPa	957.3 ± 1.2 kg/m3
361.6 kPa	957.4 ± 1.2 kg/m3
361.9 kPa	957.3 ± 1.2 kg/m3
362.3 kPa	957.5 ± 1.2 kg/m3
362.6 kPa	957.5 ± 1.2 kg/m3
362.9 kPa	957.4 ± 1.2 kg/m3
365.9 kPa	957.3 ± 1.2 kg/m3 and 957.4 ± 1.2 kg/m3
366.4 kPa	957.3 ± 1.2 kg/m3
366.8 kPa	957.4 ± 1.2 kg/m3
367.3 kPa	957.3 ± 1.2 kg/m3
367.6 kPa	957.3 ± 1.2 kg/m3
368 kPa	957.5 ± 1.2 kg/m3
368.1 kPa	957.3 ± 1.2 kg/m3
368.5 kPa	957.4 ± 1.2 kg/m3
370.4 kPa	957.4 ± 1.2 kg/m3
370.8 kPa	957.3 ± 1.2 kg/m3
371.3 kPa	957.5 ± 1.2 kg/m3
371.6 kPa	957.4 ± 1.2 kg/m3
372 kPa	957.4 ± 1.2 kg/m3
372.3 kPa	957.4 ± 1.2 kg/m3
379.4 kPa	957.5 ± 1.2 kg/m3
379.8 kPa	957.4 ± 1.2 kg/m3
380.3 kPa	957.4 ± 1.2 kg/m3
405.3 kPa	957.4 ± 1.2 kg/m3
406 kPa	957.4 ± 1.2 kg/m3
406.2 kPa	957.3 ± 1.2 kg/m3
406.4 kPa	957.4 ± 1.2 kg/m3
406.9 kPa	957.4 ± 1.2 kg/m3
410.7 kPa	957.3 ± 1.2 kg/m3
411.1 kPa	957.4 ± 1.2 kg/m3
411.8 kPa	957.4 ± 1.2 kg/m3
412.5 kPa	957.5 ± 1.2 kg/m3
415.9 kPa	957.4 ± 1.2 kg/m3
416.3 kPa	957.4 ± 1.2 kg/m3
416.6 kPa	957.3 ± 1.2 kg/m3
417.3 kPa	957.2 ± 1.2 kg/m3
417.7 kPa	957.3 ± 1.2 kg/m3
421.8 kPa	957.4 ± 1.2 kg/m3
422.4 kPa	957.5 ± 1.2 kg/m3
422.9 kPa	957.5 ± 1.2 kg/m3
423.1 kPa	957.4 ± 1.2 kg/m3
495.2 kPa	957.5 ± 1.2 kg/m3
498.6 kPa	957.4 ± 1.2 kg/m3
501.8 kPa	957.5 ± 1.2 kg/m3
506.1 kPa	957.5 ± 1.2 kg/m3
509.6 kPa	957.5 ± 1.2 kg/m3
513.1 kPa	957.4 ± 1.2 kg/m3
517.4 kPa	957.5 ± 1.2 kg/m3
521.2 kPa	957.5 ± 1.2 kg/m3
541.9 kPa	957.6 ± 1.2 kg/m3
598.9 kPa	957.5 ± 1.2 kg/m3
1360.7 kPa	958.2 ± 1.2 kg/m3
1373.7 kPa	958.2 ± 1.2 kg/m3
1386.7 kPa	958 ± 1.2 kg/m3
1402 kPa	958.1 ± 1.2 kg/m3
1499.4 kPa	958.2 ± 1.2 kg/m3
1527.2 kPa	958.3 ± 1.2 kg/m3
1543.9 kPa	958.2 ± 1.2 kg/m3
1635.2 kPa	958.4 ± 1.2 kg/m3
1649.9 kPa	958.4 ± 1.2 kg/m3
1664.3 kPa	958.4 ± 1.2 kg/m3
1682.1 kPa	958.4 ± 1.2 kg/m3
2922.7 kPa	959.2 ± 1.2 kg/m3
2945.6 kPa	959.4 ± 1.2 kg/m3
3846.3 kPa	960.1 ± 1.2 kg/m3
3871.7 kPa	960 ± 1.2 kg/m3
3901.2 kPa	960.1 ± 1.2 kg/m3
3926.1 kPa	960 ± 1.2 kg/m3
3956.3 kPa	960.1 ± 1.2 kg/m3
3981.7 kPa	960.2 ± 1.2 kg/m3
9203.5 kPa	964.1 ± 1.2 kg/m3
9234 kPa	964.1 ± 1.2 kg/m3
9270 kPa	964.2 ± 1.2 kg/m3
9300.6 kPa	964.1 ± 1.2 kg/m3
9331.6 kPa	964.1 ± 1.2 kg/m3
9596.7 kPa	964.4 ± 1.2 kg/m3
9628.1 kPa	964.4 ± 1.2 kg/m3
9666.2 kPa	964.4 ± 1.2 kg/m3
9698 kPa	964.4 ± 1.2 kg/m3
9736.5 kPa	964.4 ± 1.2 kg/m3
9768.5 kPa	964.5 ± 1.2 kg/m3
9839 kPa	964.5 ± 1.2 kg/m3
9871.9 kPa	964.6 ± 1.2 kg/m3
9905.6 kPa	964.5 ± 1.2 kg/m3
9938.9 kPa	964.7 ± 1.2 kg/m3
9971.6 kPa	964.5 ± 1.2 kg/m3
10011 kPa	964.7 ± 1.2 kg/m3
10044 kPa	964.7 ± 1.2 kg/m3
10084 kPa	964.7 ± 1.2 kg/m3
10117 kPa	964.9 ± 1.2 kg/m3
10151 kPa	964.7 ± 1.2 kg/m3
10192 kPa	965 ± 1.2 kg/m3
10225 kPa	964.9 ± 1.2 kg/m3
10259 kPa	964.9 ± 1.2 kg/m3
10294 kPa	964.9 ± 1.2 kg/m3
10335 kPa	964.8 ± 1.2 kg/m3
10369 kPa	965 ± 1.2 kg/m3
10404 kPa	965 ± 1.2 kg/m3
10446 kPa	965 ± 1.2 kg/m3
10481 kPa	964.9 ± 1.2 kg/m3
10516 kPa	964.9 ± 1.2 kg/m3
10551 kPa	965 ± 1.2 kg/m3
10593 kPa	965.2 ± 1.2 kg/m3
10628 kPa	965.1 ± 1.2 kg/m3
10670 kPa	965.1 ± 1.2 kg/m3
10705 kPa	965.2 ± 1.2 kg/m3
10741 kPa	965.2 ± 1.2 kg/m3
10777 kPa	965.2 ± 1.2 kg/m3
10820 kPa	965.2 ± 1.2 kg/m3
10856 kPa	965.5 ± 1.2 kg/m3
10893 kPa	965.4 ± 1.2 kg/m3
10929 kPa	965.3 ± 1.2 kg/m3
10972 kPa	965.3 ± 1.2 kg/m3
12411 kPa	966.4 ± 1.2 kg/m3
12434 kPa	966.4 ± 1.2 kg/m3
12457 kPa	966.5 ± 1.2 kg/m3
12484 kPa	966.4 ± 1.2 kg/m3
12507 kPa	966.5 ± 1.2 kg/m3
12530 kPa	966.5 ± 1.2 kg/m3
12559 kPa	966.6 ± 1.2 kg/m3
12577 kPa	966.5 ± 1.2 kg/m3
12604 kPa	966.5 ± 1.2 kg/m3
12626 kPa	966.5 ± 1.2 kg/m3
12653 kPa	966.7 ± 1.2 kg/m3
12675 kPa	966.5 ± 1.2 kg/m3
12697 kPa	966.5 ± 1.2 kg/m3
12722 kPa	966.6 ± 1.2 kg/m3
12741 kPa	966.6 ± 1.2 kg/m3
12760 kPa	966.7 ± 1.2 kg/m3
12778 kPa	966.8 ± 1.2 kg/m3
12793 kPa	966.6 ± 1.2 kg/m3
